Assay results taken from US11078495B2, “Methods and compositions for integration defective lentiviral vectors” (The University of North Carolina at Chapel Hill, priority 2015, dated 2021).

Tested on: human embryo fibroblasts (HEFs)
Assay: Normalized luciferase expression from IDLV (pTK993) in human embryo fibroblasts treated with Velcade and/or sodium butyrate
Format: cell-based
Conditions: sample i: HEFs, Velcade 25 nM for 24 hours at transduction, sodium butyrate 5 mM for 48 hours from day 19; harvested 21 days post transduction; normalized to protein content and VCN
Excerpt: FIG. 7: A short-term treatment of host cells with proteasome inhibitor (velcade) at the time of IDLV transduction results in long-term sensitivity of IDLV expression to HDAC inhibitor (sodium butyrate) treatment. A) Depiction of a conventional self-inactivating HIV-1 vector (pTK993) from which the firefly luciferase is expressed under the control of a CMV promoter. […] B) To characterize the short- and long-term effects of HDAC and proteasome inhibitors on IDLV gene expression, human embryo fibroblasts (HEFs) were transduced with IDLV carrying the firefly luciferase cDNA under the control of a CMV promoter. HEF transduction was carried out either in the absence (samples a, d, g and h) or in the presence of Velcade (25 nM) for 24 hours (samples b, e and i) or sodium butyrate (5 mM) for 48 hours (samples c and f). At day 19 post transduction, sample g was treated with Velcade (25 nM) for 24 hours, while samples h and i were treated with sodium butyrate (5 mM) for 48 hours. Cell samples were harvested at either 48 hours (samples a-c) or 21 days post-transduction and analyzed for luciferase expression, which was normalized to protein content and vector copy number per diploid cell genome (VCN). The readout of normalized luciferase expression is shown above each sample. […]

CC(C)C[C@H](NC(=O)[C@H](Cc1ccccc1)NC(=O)c1cnccn1)B(O)O [Velcade]
fold of increase in IDLV expression (normalized luciferase) relative to sample-control: 75 fold
